As a reminder, the IC50 is the concentration that gives 50% inhibition. Low readings indicate greater potency, high ones weaker potency.

The target of this experiment is G6PD (Homo sapiens, UniProt P11413). Description: G6PD enzymatic activity by diaphorase-coupled assay.
[1] abbreviates: Normalized in vitro IC50, Table 1A, diaphorase-coupled biochemical assay, normalization to an intraplate control.

Where two headings read alike, the source gives them in different places.

G6PD, sequence (P11413 28-515): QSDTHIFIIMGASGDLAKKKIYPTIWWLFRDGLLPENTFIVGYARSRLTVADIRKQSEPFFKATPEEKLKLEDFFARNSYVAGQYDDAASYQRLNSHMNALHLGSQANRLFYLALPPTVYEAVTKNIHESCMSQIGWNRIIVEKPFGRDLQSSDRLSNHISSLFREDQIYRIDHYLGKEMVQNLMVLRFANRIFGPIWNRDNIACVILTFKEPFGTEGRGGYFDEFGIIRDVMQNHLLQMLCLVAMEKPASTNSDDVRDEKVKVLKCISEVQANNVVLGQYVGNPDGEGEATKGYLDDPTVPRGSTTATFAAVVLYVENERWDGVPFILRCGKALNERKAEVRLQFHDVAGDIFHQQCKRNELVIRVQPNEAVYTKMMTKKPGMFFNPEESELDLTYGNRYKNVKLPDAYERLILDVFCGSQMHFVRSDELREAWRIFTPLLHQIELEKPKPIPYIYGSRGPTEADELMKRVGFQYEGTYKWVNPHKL

The molecule `O=C1CCCCc2nc(Nc3ccc(F)cc3)ncc21` [Compound 0001] registered an IC50 under setting [1] of 1 to 1000 µM.

With `O=C1CCCCc2nc(Nc3ccc(Cl)cc3)ncc21` [Compound 0002], the concentration for half-maximal inhibition (IC50) under setting [1] is 1 to 1000 µM.

`O=C1CCCCc2nc(Nc3ccc(Br)cc3)ncc21` [Compound 0003] returned a 50% inhibitory concentration (IC50) under setting [1] of 1 to 1000 µM.

Under setting [1], `O=C1CCCCc2nc(Nc3ccc(I)cc3)ncc21` [Compound 0004] registered a 50% inhibitory concentration (IC50) of 1 to 1000 µM.

Under setting [1], `Cc1ccc(Nc2ncc3c(n2)CCCCC3=O)cc1` [Compound 0005] yielded an IC50 of 1 to 1000 µM.

In the case of `CCc1ccc(Nc2ncc3c(n2)CCCCC3=O)cc1` [Compound 0006], under setting [1], the IC50 is 1 to 1000 µM.

`CC(C)c1ccc(Nc2ncc3c(n2)CCCCC3=O)cc1` [Compound 0007] gave an IC50 under setting [1] of 1 to 1000 µM.

In turn, `COc1ccc(Nc2ncc3c(n2)CCCCC3=O)cc1` [Compound 0008] displayed an IC50 under setting [1] of 1 to 1000 µM.

Regarding `O=C1CCCCc2nc(Nc3ccc(SC(F)(F)F)cc3)ncc21` [Compound 0009], the 50% inhibitory concentration (IC50) under setting [1] is 1 to 1000 µM.

`O=C1CCCCc2nc(Nc3ccc(C(F)(F)F)cc3)ncc21` [Compound 0010] displayed an IC50 under setting [1] of 1 to 1000 µM.

On to `O=C1CCCCc2nc(Nc3ccc([N+](=O)[O-])cc3)ncc21` [Compound 0011], for which the IC50 under setting [1] lay in the range of 1 to 1000 µM.

`N#Cc1ccc(Nc2ncc3c(n2)CCCCC3=O)cc1` [Compound 0012] registered a half-inhibitory concentration (IC50) under setting [1] of 1 to 1000 µM.

Under setting [1], `CC(=O)Nc1ccc(Nc2ncc3c(n2)CCCCC3=O)cc1` [Compound 0013] had an IC50 above 1000 µM.

For `O=C1CCCCc2nc(Nc3cc(C(F)(F)F)cc(C(F)(F)F)c3)ncc21` [Compound 0014], the IC50 is 1 to 1000 µM.

In turn, `O=C1CCCCc2nc(Nc3ccccc3F)ncc21` [Compound 0015] yielded an IC50 under setting [1] of 1 to 1000 µM.

Turning to `O=C1CCCCc2nc(Nc3ccccc3Cl)ncc21` [Compound 0016], the IC50 under setting [1] was in the range of 1 to 1000 µM.

As for `O=C1CCCCc2nc(Nc3ccc(F)c(Cl)c3)ncc21` [Compound 0017], the IC50 was below 1 µM.

For the molecule `N#Cc1cc(Nc2ncc3c(n2)CCCCC3=O)ccc1Cl` [Compound 0018], the IC50 was in the range of 1 to 1000 µM.

As for `Cc1ccc(Nc2ncc3c(n2)CCCCC3=O)cc1C#N` [Compound 0019], the IC50 was below 1 µM.

Under setting [1], `COc1ccc(Nc2ncc3c(n2)CCCCC3=O)cc1C#N` [Compound 0020] had an IC50 below 1 µM.

As to `O=C1CCCCc2nc(Nc3ccccc3)ncc21` [Compound 0021], under setting [1], the IC50 is 1 to 1000 µM.

On to `COC(=O)c1ccc(Nc2ncc3c(n2)CCCCC3=O)cc1` [Compound 0022], for which, under setting [1], the IC50 was 1 to 1000 µM.

With `CC1(C)OB(c2cccc(Nc3ncc4c(n3)CCCCC4=O)c2)OC1(C)C` [Compound 0023], the IC50 is 1 to 1000 µM.

Take `N#CCc1cccc(Nc2ncc3c(n2)CCCCC3=O)c1` [Compound 0024]: the IC50 under setting [1] was in the range of 1 to 1000 µM.

The molecule `O=C1CCCCc2nc(Nc3ccc([N+](=O)[O-])c(Cl)c3)ncc21` [Compound 0025] showed an IC50 of 1 to 1000 µM.

Under setting [1], `N#CCc1ccc(Nc2ncc3c(n2)CCCCC3=O)cc1` [Compound 0026] displayed an IC50 of 1 to 1000 µM.

Molecule `O=C1CCCCc2nc(Nc3cc(Cl)cc(C(F)(F)F)c3)ncc21` [Compound 0027] returned an IC50 of 1 to 1000 µM.

The molecule `O=C1CCCCc2nc(Nc3cccc(Cl)c3)ncc21` [Compound 0028] yielded an IC50 under setting [1] below 1 µM.

`N#Cc1cc(Nc2ncc3c(n2)CCCCC3(F)F)cs1` [Compound 0031] registered an IC50 of 1 to 1000 µM.

As for `O=C1CCCCc2nc(Nc3ccc(B(O)O)cc3)ncc21` [Compound 0032], under setting [1], the half-inhibitory concentration (IC50) lay in the range of 1 to 1000 µM.

Molecule `O=C1CCCCc2nc(Nc3csc(-c4nnn[nH]4)c3)ncc21` [Compound 0033] displayed an IC50 of 1 to 1000 µM.

As to `N#CC(C#N)=C1CCCCc2nc(Nc3csc(C#N)c3)ncc21` [Compound 0034], the IC50 was below 1 µM.

For the molecule `N#Cc1cc(Nc2ncc3c(n2)CCCCC3=O)cc(OCc2ccccc2)c1` [Compound 0035], the IC50 is below 1 µM.

`O=C1CCCCc2nc(Nc3ccc(-c4nnn[nH]4)cc3)ncc21` [Compound 0036]: the IC50 was below 1 µM.

Take `N#Cc1cc(Nc2ncc3c(n2)C2CCC(C2)C3=O)cs1` (centres unmarked) [Compound 0040]: the IC50 lay within 1 to 1000 µM.

Take `O=C(c1ccccc1)c1cc(Cl)cc(Nc2ncc3c(n2)CCCCC3=O)c1` [Compound 0042]: under setting [1], the IC50 was 1 to 1000 µM.

For `Cc1ccc(C(=O)c2cc(Cl)cc(Nc3ncc4c(n3)CCCCC4=O)c2)cc1` [Compound 0043], the IC50 was above 1000 µM.

For `NS(=O)(=O)c1ccc(Nc2ncc3c(n2)CCCCC3=O)cc1` [Compound 0044], under setting [1], the IC50 was 1 to 1000 µM.

On to `N#Cc1cc(Nc2ncc3c(n2)CCCCC3=O)cc(OCc2ccc(Cl)cc2)c1` [Compound 0045], for which the IC50 fell in the range of 1 to 1000 µM.

`N#Cc1cc(Nc2ncc3c(n2)CCCCC3=O)cc(OCc2cccc(Cl)c2)c1` [Compound 0046]: the IC50 was below 1 µM.

The molecule `N#Cc1cc(Nc2ncc3c(n2)CCCCC3=O)cc(OCc2ccccc2Cl)c1` [Compound 0047] registered an IC50 below 1 µM.

In turn, `COc1ccc(COc2cc(C#N)cc(Nc3ncc4c(n3)CCCCC4=O)c2)cc1` [Compound 0048] yielded an IC50 below 1 µM.

As for `N#Cc1cc(Nc2ncc3c(n2)CCCCC3=O)cc(OCc2ccsc2)c1` [Compound 0049], the IC50 is below 1 µM.

`N#Cc1cc(Nc2ncc3c(n2)CCCCC3=O)cc(OCc2c(F)c(F)c(F)c(F)c2F)c1` [Compound 0050] displayed an IC50 below 1 µM.

With `N#Cc1cc(Nc2ncc3c(n2)CCCCC3=O)c[nH]1` [Compound 0051], the IC50 is below 1 µM.

As to `N#Cc1cc(Nc2ncc3c(n2)CCCc2cnoc2-3)cs1` [Compound 0052], the concentration for half-maximal inhibition (IC50) lay in the range of 1 to 1000 µM.

`N#Cc1cc(Nc2ncc3c(n2)CCCC/C3=N\O)cs1` [Compound 0053] came in with an IC50 above 1000 µM.

Molecule `N#Cc1cc(Nc2ncc3c(n2)CCCC/C3=N/O)cs1` [Compound 0054] had an IC50 above 1000 µM.

`N#C/C=C1\CCCCc2nc(Nc3csc(C#N)c3)ncc21` [Compound 0055] registered an IC50 of 1 to 1000 µM.

Turning to `N#C/C=C1/CCCCc2nc(Nc3csc(C#N)c3)ncc21` [Compound 0056], the half-inhibitory concentration (IC50) is 1 to 1000 µM.

Take `Cn1cc(Nc2ncc3c(n2)CCCCC3=O)cc1C#N` [Compound 0057]: the half-maximal inhibitory concentration (IC50) was 1 to 1000 µM.

In turn, `N#Cc1cc(Nc2ncc3c(n2)CCCCC3=O)cn1Cc1ccccc1` [Compound 0058] gave an IC50 of 1 to 1000 µM.

`CCOc1cc(C#N)cc(Nc2ncc3c(n2)CCCCC3=O)c1` [Compound 0059] showed an IC50 below 1 µM.

For `CCCOc1cc(C#N)cc(Nc2ncc3c(n2)CCCCC3=O)c1` [Compound 0060], the IC50 is below 1 µM.

Regarding `CC(C)Oc1cc(C#N)cc(Nc2ncc3c(n2)CCCCC3=O)c1` [Compound 0061], the IC50 is below 1 µM.

The molecule `C#CCOc1cc(C#N)cc(Nc2ncc3c(n2)CCCCC3=O)c1` [Compound 0062] showed an IC50 below 1 µM.

On to `N#Cc1cc(Nc2ncc3c(n2)CCCCC3=O)cc(OC2CCCCC2)c1` [Compound 0063], for which the IC50 was below 1 µM.

Consider `N#Cc1cc(Nc2ncc3c(n2)CCCCC3=O)cs1` [Compound 0065], for which the IC50 under setting [1] is below 1 µM.

Regarding `N#Cc1cc(Nc2cc3c(cn2)C(=O)CCCC3)cs1` [Compound 0066], the 50% inhibitory concentration (IC50) lay in the range of 1 to 1000 µM.

Regarding `N#Cc1cc(Nc2ncc3c(n2)CCCc2cn[nH]c2-3)cs1` [Compound 0067], the IC50 lay in the range of 1 to 1000 µM.

As for `N#Cc1scc(Nc2ncc3c(n2)CCCCC3=O)c1-n1cccc1` [Compound 0071], the IC50 is below 1 µM.

As to `N#Cc1cc(Nc2ncc3c(n2)CCCCC3=O)cc(OCC2CCCCC2)c1` [Compound 0072], the IC50 fell in the range of 1 to 1000 µM.

For `N#Cc1cc(Nc2ncc3c(n2)CCCCC3=O)cc(OCc2ccc(Br)cc2)c1` [Compound 0073], the IC50 fell in the range of 1 to 1000 µM.

As to `Cc1ccc(COc2cc(C#N)cc(Nc3ncc4c(n3)CCCCC4=O)c2)cc1` [Compound 0074], the IC50 is below 1 µM.

The molecule `N#Cc1cc(Nc2ncc3c(n2)CCCCC3=O)cc(OCc2ccc3c(c2)OCO3)c1` [Compound 0075] showed an IC50 below 1 µM.

`N#Cc1cc(Nc2ncc3c(n2)CCCCC3=O)cc(OCc2ccc(F)cc2)c1` [Compound 0076] displayed an IC50 below 1 µM.

`N#Cc1cc(Nc2ncc3c(n2)CCCCC3=O)cc(OCc2ccc(OC(F)(F)F)cc2)c1` [Compound 0077] showed an IC50 of 1 to 1000 µM.

`N#Cc1cc(Nc2ncc3c(n2)CCCCC3=O)cc(OCc2ccncc2)c1` [Compound 0078] returned an IC50 below 1 µM.

`N#Cc1cc(Nc2ncc3c(n2)CCCCC3=O)cc(OCc2cccc3ccccc23)c1` [Compound 0079]: the IC50 is below 1 µM.

Molecule `N#Cc1cc(Nc2ncc3c(n2)CCCCC3=O)cc(OCc2ccc3ccccc3c2)c1` [Compound 0080] came in with an IC50 of 1 to 1000 µM.

The molecule `N#Cc1cc(Nc2ncc3c(n2)CCCCC3=O)cc(OCc2c[nH]c3ccccc23)c1` [Compound 0081] returned an IC50 above 1000 µM.

Regarding `N#Cc1cc(Nc2ncc3c(n2)CCCCC3=O)cc(OCc2ccc(CO)cc2)c1` [Compound 0082], the IC50 was below 1 µM.

Take `N#Cc1cc(Nc2ncc3c(n2)CCCCC3=O)cc(OCc2cccc(CO)c2)c1` [Compound 0083]: the IC50 is below 1 µM.

As to `N#Cc1cc(Nc2ncc3c(n2)CCCCC3=O)cc(Oc2ccccc2)c1` [Compound 0084], the half-inhibitory concentration (IC50) lay within 1 to 1000 µM.

The molecule `N#Cc1cc(Nc2ncc3c(n2)CCCCC3=O)cc(OC(=O)c2ccccc2)c1` [Compound 0085] showed an IC50 of 1 to 1000 µM.

Take `COc1ccc(Oc2cc(C#N)cc(Nc3ncc4c(n3)CCCCC4=O)c2)cc1` [Compound 0086]: under setting [1], the IC50 lay in the range of 1 to 1000 µM.

Take `N#Cc1cccc(Nc2ncc3c(n2)CCCCC3=O)c1F` [Compound 0087]: the IC50 was below 1 µM.

Take `N#Cc1ccc(F)c(Nc2ncc3c(n2)CCCCC3=O)c1` [Compound 0088]: the IC50 lay within 1 to 1000 µM.

With `CCCCOc1cc(C#N)cc(Nc2ncc3c(n2)CCCCC3=O)c1` [Compound 0089], the concentration for half-maximal inhibition (IC50) was 1 to 1000 µM.

In turn, `CCOCCOc1cc(C#N)cc(Nc2ncc3c(n2)CCCCC3=O)c1` [Compound 0090] returned an IC50 of 1 to 1000 µM.

Take `CCCCCCCCCCCCCCOc1cc(C#N)cc(Nc2ncc3c(n2)CCCCC3=O)c1` [Compound 0092]: the IC50 was above 1000 µM.

As for `CC1(C)[C@H]2CCC1(C)[C@@H](Oc1cc(C#N)cc(Nc3ncc4c(n3)CCCCC4=O)c1)C2` [Compound 0093], the 50% inhibitory concentration (IC50) was above 1000 µM.

In the case of `C#CCCCOc1cc(C#N)cc(Nc2ncc3c(n2)CCCCC3=O)c1` [Compound 0094], the IC50 is below 1 µM.

Values taken from patent US20230348401A1, “Inhibitors of Glucose-6-phosphate Dehydrogenase and Uses Thereof” (The Trustees of Princeton University, priority 2020, published 2023).
